Patent US20100226991A1, “SOLID INORGANIC/ORGANIC HYBRID WITH MODIFIED SURFACE” (CENTRE NATIONAL DE LA RECHERCHE SCIENTIFIQUE - CNRS-, priority 2007, published 2010)
Values after ≈ are worked out from the molar mass of the structure shown.

Columns and labels:
[1] = 20° C.; cited from earlier work
rats = details: cited from earlier work
[2] = Solubility of busulfan in various solvents; format: physicochemical
Excerpt: The solvents chosen for the impregnation are those in which busulfan has appreciable solubility (acetone, acetonitrile, chloroform, dichloromethane, dimethyl carbonate) (Table 18).

Female Wistar rats = details: rat, in vivo
Description: The animals used for the experiment are […] female Wistar rats weighing 161.36±16.1 g.
All the tests were performed in the animal house of the University Pharmacy school under temperature and humidity conditions, and after 3 days of adapting the animals to the animal house (3 days).
For the acute toxicity tests, a single intrajugular injection of the materials MIL-88A (150 and 500 nm), MIL-88Bt (50 and 140 nm) or 5% glucose (control group) is performed on 4 groups (at 1 day, 1 week, 1 month and 3 months, respectively) of 8 rats chosen at random and anesthetized with isoflurane.
The change in weight and the behavior of the animals were monitored. […]
Moreover, each group of animals was sacrificed after 1 day, 1 week, 1 and 3 months, respectively. The animals were anesthetized with isoflurane and the spleen, kidneys, liver and heart were then removed and stored for histological studies. Four livers were also used to perform a microsomal extraction in order to measure the activation of cytochrome P450. […]

Cytochrome P450 = system: Cytochrome P450; parameters: species or system Wistar rats; details: rat, in vivo
Excerpt: Moreover, each group of animals was sacrificed after 1 day, 1 week, 1 and 3 months, respectively. The animals were anesthetized with isoflurane and the spleen, kidneys, liver and heart were then removed and stored for histological studies. Four livers were also used to perform a microsomal extraction in order to measure the activation of cytochrome P450.
Cytochrome P450 is an enzyme associated with the […] of the smooth endoplasmic reticulum, which is highly involved in the degradation of exogenous molecules. This enzyme has very low substrate specificity and is capable of catalyzing the transformation of newly synthesized compounds such as medicaments. The majority of the P450 cytochromes can be induced or repressed, at the transcriptional level, by various xenobiotics; this is often the cause of side effects of medicaments. Assaying this enzyme makes it possible to determine whether the MOF material used is metabolized by cytochrome P450, in which case it will activate or inhibit its activity.
The amount of cytochrome can be interpreted only on condition that it has been related to the total amount of protein contained in each sample. Assay of the protein contained in the sample was performed by means of a BCA kit supplied by Pierce (batch #HI106096). […]

Compound: COc1ccc(C(=O)c2ccccc2)c(O)c1 [Benzophenone-3, 2-hydroxy-4-methoxybenzophenone]
- solubility in water [1]: 3.7 µg/mL (≈ 0.0162 mM)

Compound: COc1cc(O)c(C(=O)c2ccccc2)cc1S(=O)(=O)O [Benzophenone-4, 2-hydroxy-4-methoxybenzophenone-5-sulfonic acid]
- solubility in water [1]: 100000 µg/mL (≈ 324 mM)

Compound: [Cl][Zr]([Cl])([Cl])[Cl] [ZrCl4]
- oral lethal dose 50 (LD50) (rats): 1700 mg/kg

Compound: CS(=O)(=O)OCCCCOS(C)(=O)=O [busulfan, 1,4-butanediol dimethylsulfonate]
- solubility ([2]; acetone, organic solvent or mixture): 20000 µg/mL
- solubility ([2]; acetonitrile, organic solvent or mixture): 30000 µg/mL
- solubility ([2]; chloroform, organic solvent or mixture): 8000 µg/mL
- solubility ([2]; dichloromethane, organic solvent or mixture): 10000 µg/mL
- solubility ([2]; dimethyl carbonate, organic solvent or mixture): 13000 µg/mL
- solubility ([2]; ethanol, organic solvent or mixture): < 4000 µg/mL
- solubility ([2]; ether, organic solvent or mixture): < 4000 µg/mL
- solubility ([2]; ethyl acetate, organic solvent or mixture): 6600 µg/mL
- solubility ([2]; hexane, organic solvent or mixture): < 4000 µg/mL
- solubility ([2]; methanol, organic solvent or mixture): < 4000 µg/mL
- solubility ([2]; tetrahydrofuran, organic solvent or mixture): ~5000 µg/mL
- solubility ([2]; toluene, organic solvent or mixture): ~4000 µg/mL
- solubility ([2]; water): 100 µg/mL

Compound: Fe3O[O2C—C2H2—CO2]3.X.nH2O [MIL-88A]
- liver weight (Female Wistar rats): returns to normal for MIL-88A after 3 months
- seric iron (Female Wistar rats): recovered a seric iron concentration comparable to that of the control group
- signs of severe toxicity (Female Wistar rats): do not induce any sign of severe toxicity
- weight change of the animals (Female Wistar rats): does not produce a significant variation in weight over time
- metabolism by cytochrome P450 (cytochrome activity vs glucose control) (Cytochrome P450): not metabolized by Cyp450

Compound: Fe3O[O2C—C6(CH3)4—CO2]3.OH.nH2O [MIL-88Bt]
- liver weight (Female Wistar rats): the weight remains high
- seric iron (Female Wistar rats): recovered a seric iron concentration comparable to that of the control group
- signs of severe toxicity (Female Wistar rats): do not induce any sign of severe toxicity
- weight change of the animals (Female Wistar rats): does not produce a significant variation in weight over time
- metabolism by cytochrome P450 (cytochrome activity vs glucose control) (Cytochrome P450): does not appear to be metabolized by Cyp450
